Tests used:
[1] = in vivo; cited from earlier work
[2] = Absorption of folic acid from the nasal cavity of rats (in vivo technique, spectrophotometric assay of nasal washings); settings: rat, intranasal 0.1 ml of folic acid solution (50 mg/10 ml, pH 8.3), nasal cavity washed with 3 ml water
Experimental: Rats were fasted overnight prior to experimentation. Surgical procedures were performed under equithesin anesthesia (3 ml/kg, i.p.). An incision was made in the neck of each rat, and the trachea cannulated with polyethylene tubing (PF-260). A closed end tube was inserted through the esophagus to the posterior part of the nasal cavity to prevent drug from entering the esophagus. The nasopalatine passage was closed with an adhesive agent to prevent drainage of the drug from the nasal cavity to the mouth.
The solution was filtered. The final pH was 8.3.
The washings were placed in a spectrophotometer cell and the absorbance was measured.

| Compound | Patients with abdominal cramping, nausea, vomiting, and diarrhea [1] | Patients with elevation of serum transaminases (hepatotoxicity) [1] | Concentration of folic acid in the nasal cavity ([2]; time 0 min) | Concentration of folic acid in the nasal cavity ([2]; time 2 min) | Concentration of folic acid in the nasal cavity ([2]; time 5 min) | Concentration of folic acid in the nasal cavity ([2]; time 15 min) |
| --- | --- | --- | --- | --- | --- | --- |
| Nc1c2c(nc3ccccc13)CCCC2 [tacrine, 1,2,3,4-tetrahydro-9-aminoacridine] | up to one-third | up to 20 % of patients | – | – | – | – |
| Nc1nc(=O)c2nc(CNc3ccc(C(=O)NC(CCC(=O)O)C(=O)O)cc3)cnc2[nH]1 [folic acid, N-[4-[[(2-Amino-1,4-dihydro-4-oxo-6-pteridinyl)methly]amino]benzoyl]-L-glutamic acid] | – | – | 4.1 mg % | 3.8 mg % | 2.9 mg % | 2.6 mg % |
